From patent US12344610B2, “APOL1 inhibitors and methods of use” (Maze Therapeutics, Inc., priority 2022, dated 2025) come the findings set out here.

SMILES strings stand for the structures.

For this assay, the target named is T1, APOL1 G2 (Homo sapiens, UniProt O14791, DEL388-389).
T1 construct: expressed in transfected cells; host or cells: HEK293 T-REx clonal line stably expressing GCaMP6f (HEK T-REx/GCaMP6f/APOL1 G2 K6.3), doxycycline induced
T1 sequence (O14791 with tags, fused parts or gaps DEL388-389): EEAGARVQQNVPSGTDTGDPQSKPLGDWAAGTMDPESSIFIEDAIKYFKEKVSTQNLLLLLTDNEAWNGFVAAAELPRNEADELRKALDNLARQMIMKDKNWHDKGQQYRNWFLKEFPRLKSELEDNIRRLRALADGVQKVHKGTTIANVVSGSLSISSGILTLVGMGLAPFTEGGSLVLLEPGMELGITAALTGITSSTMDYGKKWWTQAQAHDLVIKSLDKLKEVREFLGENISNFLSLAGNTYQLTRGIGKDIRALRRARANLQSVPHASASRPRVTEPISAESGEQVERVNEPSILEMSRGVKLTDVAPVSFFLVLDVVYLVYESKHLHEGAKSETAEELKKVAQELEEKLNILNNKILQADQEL
The experiment in a line: APOL1-mediated calcium transport (calcium influx) assay, HEK T-REx/GCaMP6f/APOL1 G2 K6.3 cells, FLIPR TETRA. Format: cell-based. The note with it: prevention of calcium influx; geometric mean of at least 2 assay runs; † = average of a technical replicate from a single assay run. The method in brief: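 A HEK293 T-REx clone stably expressing GCaMP6f had APOL1 G2 induced with doxycycline (20 ng/mL solution added) for 6 h. Cells were then washed into Ca2+-free Tyrode's buffer (pH 7.4) and preincubated with compounds (duplicate 8-point) for 10 min at room temperature. Ca2+ injection to 5 mM final produced FLIPR GCaMP fluorescence, giving AC50 for influx inhibition (geometric mean, ≥2 runs).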
What is called AC50 is the midpoint of the concentration-response curve, whichever way the signal moves. On to `O=C1CCc2cc(OCCN3CCC4(CC3)C(=O)Nc3ccc(Cl)cc34)ccc2N1` [Compound 82, 5-chloro-1′-{2-[(2-oxo-1,2,3,4-tetrahydroquinolin-6-yl)oxy]ethyl}-1,2-dihydrospiro[indole-3,4′-piperidin]-2-one], for which the AC50 was 1050 nM. For the molecule `CS(=O)(=O)C1(c2c(F)cc(OCCN3CCC4(CC3)C(=O)Nc3ccc(C#N)cc34)cc2F)COC1` [Compound 84, 1′-{2-[3,5-difluoro-4-(3-methanesulfonyloxetan-3-yl)phenoxy]ethyl}-2-oxo-1,2-dihydrospiro[indole-3,4′-piperidine]-5-carbonitrile], the AC50 stood at 1450 nM. For `O=C1Nc2ccc(Cl)cc2C12CCN(CCOc1ccc3c(cnn3[C@H]3C[C@@H](O)C3)c1)CC2` [Compound 85, 5-chloro-1′-[2-({1-[(cis)-3-hydroxycyclobutyl]-1H-indazol-5-yl}oxy)ethyl]-1,2-dihydrospiro[indole-3,4′-piperidin]-2-one] the value was 564 nM; for `O=C1Nc2ccc(Cl)cc2C12CCN(CCOc1ccc3c(cnn3[C@H]3C[C@H](O)C3)c1)CC2` [Compound 86, 5-chloro-1′-[2-({1-[(trans)-3-hydroxycyclobutyl]-1H-indazol-5-yl}oxy)ethyl]-1,2-dihydrospiro[indole-3,4′-piperidin]-2-one], 539 nM; for `O=C1Nc2ccc(Cl)cc2C12CCN(CCOc1ccc3[nH]ncc3c1)CC2` [Compound 87, 5-chloro-1′-[2-(2H-indazol-5-yloxy)ethyl]-1,2-dihydrospiro[indole-3,4′-piperidin]-2-one], 375 nM. Under `Cn1c(=O)[nH]c2cc(OCCN3CCC4(CC3)C(=O)Nc3ccc(Cl)cc34)ccc21` [Compound 88, 5-chloro-1′-{2-[(1-methyl-2-oxo-2,3-dihydro-1H-1,3-benzodiazol-5-yl)oxy]ethyl}-1,2-dihydrospiro[indole-3,4′-piperidin]-2-one] stands 698 nM. Under `CS(=O)(=O)c1c(F)cc(OCCN2CCC3(CC2)C(=O)Nc2ccc(Cl)cc23)cc1F` [Compound 89, 5-chloro-1′-[2-(3,5-difluoro-4-methanesulfonylphenoxy)ethyl]-1,2-dihydrospiro[indole-3,4′-piperidin]-2-one] stands 463 nM; under `CS(=O)(=O)c1c(F)cc(OCCN2CCC3(CC2)C(=O)Nc2ccc(C#N)cc23)cc1F` [Compound 90, 1′-[2-(3,5-difluoro-4-methanesulfonylphenoxy)ethyl]-2-oxo-1,2-dihydrospiro[indole-3,4′-piperidine]-5-carbonitrile], 973 nM. Turning to `COC(=O)C1(S(=O)(=O)c2ccc(OCCN3CCC4(CC3)C(=O)Nc3ccc(Cl)cc34)cc2)CC1` [Compound 91, methyl 1-[4-(2-{5-chloro-2-oxo-1,2-dihydrospiro[indole-3,4′-piperidin]-1′-yl}ethoxy)benzenesulfonyl]cyclopropane-1-carboxylate], the AC50 came to 739 nM. For `CC1(S(=O)(=O)c2ccc(OCCN3CCC4(CC3)C(=O)Nc3ccc(Cl)cc34)cc2)COC1` [Compound 92, 5-chloro-1′-(2-{4-[(3-methyloxetan-3-yl)sulfonyl]phenoxy}ethyl)-1,2-dihydrospiro[indole-3,4′-piperidin]-2-one] the value was 761 nM. For `CC1(S(=O)(=O)c2ccc(OCCN3CCC4(CC3)C(=O)Nc3ccc(C#N)cc34)cc2)COC1` [Compound 93, 1′-(2-{4-[(3-methyloxetan-3-yl)sulfonyl]phenoxy}ethyl)-2-oxo-1,2-dihydrospiro[indole-3,4′-piperidine]-5-carbonitrile] the value was 951 nM. Under `CS(=O)(=O)N1CCc2cc(OCCN3CCC4(CC3)C(=O)Nc3ccc(Cl)cc34)ccc2C1` [Compound 94, 5-chloro-1′-{2-[(2-methanesulfonyl-1,2,3,4-tetrahydroisoquinolin-6-yl)oxy]ethyl}-1,2-dihydrospiro[indole-3,4′-piperidin]-2-one] stands 794 nM; under `CN1C(=O)CCc2cc(OCCN3CCC4(CC3)C(=O)Nc3ccc(C#N)cc34)ccc21` [Compound 95, 1′-{2-[(1-methyl-2-oxo-1,2,3,4-tetrahydroquinolin-6-yl)oxy]ethyl}-2-oxo-1,2-dihydrospiro[indole-3,4′-piperidine]-5-carbonitrile], 655 nM; under `CC(C)N1C(=O)CCc2cc(OCCN3CCC4(CC3)C(=O)Nc3ccc(C#N)cc34)ccc21` [Compound 96, 2-oxo-1′-(2-{[2-oxo-1-(propan-2-yl)-1,2,3,4-tetrahydroquinolin-6-yl]oxy}ethyl)-1,2-dihydrospiro[indole-3,4′-piperidine]-5-carbonitrile], 552 nM. On to `CC(C)N1C(=O)CCc2cc(OCCN3CCC4(CC3)C(=O)Nc3ccc(Cl)cc34)ccc21` [Compound 97, 5-chloro-1′-(2-{[2-oxo-1-(propan-2-yl)-1,2,3,4-tetrahydroquinolin-6-yl]oxy}ethyl)-1,2-dihydrospiro[indole-3,4′-piperidin]-2-one], for which the AC50 was found to be 823 nM. Under `CS(=O)(=O)N(CCO)c1ccc(OCCN2CCC3(CC2)C(=O)Nc2ccc(Cl)cc23)cc1` [Compound 98, N-[4-(2-{5-chloro-2-oxo-1,2-dihydrospiro[indole-3,4′-piperidin]-1′-yl}ethoxy)phenyl]-N-(2-hydroxyethyl)methanesulfonamide] stands 600 nM.
